Data from ChEMBL document CHEMBL1201861, “Genomics of Drug Sensitity in Cancer screening data, Wellcome Trust Sanger Institute”.

What was measured:
Experiment in all cases: cells
EFO-27 = assay type: functional, cell-based; details: Homo sapiens;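 also: growth inhibition of EFO-27 cells, read out with a cell viability assay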
Description: SANGER: Inhibition of human EFO-27 cell growth in a cell viability assay.

SW1463 = assay type: functional, cell-based; details: Homo sapiens;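 also: growth inhibition of SW1463 cells, determined with a cell viability assay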
Description: SANGER: Inhibition of human SW1463 cell growth in a cell viability assay.

H4 = assay type: functional, cell-based; details: Homo sapiens
Description: SANGER: Inhibition of human H4 cell growth in a cell viability assay.

S-117 = assay type: functional, cell-based; details: Homo sapiens
Description: SANGER: Inhibition of human S-117 cell growth in a cell viability assay.

C-33-A = assay type: functional, cell-based; details: Homo sapiens;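 also: cell viability assay measuring growth inhibition of C-33-A cells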
Description: SANGER: Inhibition of human C-33-A cell growth in a cell viability assay.

NCI-H2052 = assay type: functional, cell-based; details: Homo sapiens;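 also: growth inhibition of NCI-H2052 cells, read out with a cell viability assay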
Description: SANGER: Inhibition of human NCI-H2052 cell growth in a cell viability assay.

NCI-H1693 = assay type: functional, cell-based; details: Homo sapiens;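 also: growth inhibition of the human cell line, read out with a cell viability assay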
Description: SANGER: Inhibition of human NCI-H1693 cell growth in a cell viability assay.

NCI-H1573 = assay type: functional, cell-based; details: Homo sapiens;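 also: growth inhibition of NCI-H1573 cells, read out with a cell viability assay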
Description: SANGER: Inhibition of human NCI-H1573 cell growth in a cell viability assay.

NCI-H1993 = assay type: functional, cell-based; details: Homo sapiens;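 also: growth inhibition of the cancer cell line, assessed with a cell viability assay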
Description: SANGER: Inhibition of human NCI-H1993 cell growth in a cell viability assay.

CWR22R = assay type: functional, cell-based; details: Homo sapiens, 22Rv1;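 also: growth inhibition of 22Rv1 cells, read out with a cell viability assay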
Description: SANGER: Inhibition of human 22RV1 cell growth in a cell viability assay.

ASPC1 = assay type: functional, cell-based; details: Homo sapiens;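 also: growth inhibition of AsPC-1 cells, read out with a cell viability assay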
Description: SANGER: Inhibition of human AsPC-1 cell growth in a cell viability assay.

HCT-116 = assay type: functional, cell-based; details: Homo sapiens
Description: SANGER: Inhibition of human HCT-116 cell growth in a cell viability assay.

HMV-2 cell line = assay type: functional, cell-based; details: Homo sapiens;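 also: growth inhibition of HMV-II cells, read out with a cell viability assay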
Description: SANGER: Inhibition of human HMV-II cell growth in a cell viability assay.

WM-115 = assay type: functional, cell-based; details: Homo sapiens
Description: SANGER: Inhibition of human WM-115 cell growth in a cell viability assay.

SW1783 = assay type: functional, cell-based; details: Homo sapiens;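 also: cell growth inhibition measured with a viability assay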
Description: SANGER: Inhibition of human SW1783 cell growth in a cell viability assay.

MDA-MB-361 = assay type: functional, cell-based; details: Homo sapiens
NCI-H1651 = assay type: functional, cell-based; details: Homo sapiens;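 also: Read-out is a cell viability assay, with IC50 expressing inhibition of NCI-H1651 cell growth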
Description: SANGER: Inhibition of human NCI-H1651 cell growth in a cell viability assay.

8505C = assay type: functional, cell-based; details: Homo sapiens
Description: SANGER: Inhibition of human 8505C cell growth in a cell viability assay.

PA-1 = assay type: functional, cell-based; details: Homo sapiens;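 also: IC50 for suppression of PA-1 cell proliferation, determined with a cell viability read-out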
Description: SANGER: Inhibition of human PA-1 cell growth in a cell viability assay.

T-24 = assay type: functional, cell-based; details: Homo sapiens;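 also: growth inhibition of T-24 cells, read out with a cell viability assay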
Description: SANGER: Inhibition of human T-24 cell growth in a cell viability assay.

HCC1937 = assay type: functional, cell-based; details: Homo sapiens;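 also: growth inhibition measured with a cell viability read-out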
Description: SANGER: Inhibition of human HCC1937 cell growth in a cell viability assay.

MKN-1 = assay type: functional, cell-based; details: Homo sapiens;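 also: growth inhibition of human MKN1 cells, read out by a cell viability measurement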
Description: SANGER: Inhibition of human MKN1 cell growth in a cell viability assay.

NCI-H1792 = assay type: functional, cell-based; details: Homo sapiens;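 also: growth inhibition of human NCI-H1792 cells, read out as cell viability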
Description: SANGER: Inhibition of human NCI-H1792 cell growth in a cell viability assay.

EFO-21 = assay type: functional, cell-based; details: Homo sapiens;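 also: growth inhibition of EFO-21 cells measured with a viability assay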
Description: SANGER: Inhibition of human EFO-21 cell growth in a cell viability assay.

HT1197 = assay type: functional, cell-based, HT-1197; details: Homo sapiens
Description: SANGER: Inhibition of human HT-1197 cell growth in a cell viability assay.

BEN = assay type: functional, cell-based; details: Homo sapiens;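 also: growth inhibition of the BEN cell line, read out with a cell viability assay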
Description: SANGER: Inhibition of human BEN cell growth in a cell viability assay.

YKG-1 = assay type: functional, cell-based; details: Homo sapiens;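 also: cell growth inhibition, read out with a viability assay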
Description: SANGER: Inhibition of human YKG-1 cell growth in a cell viability assay.

SK-HEP1 = assay type: functional, cell-based, SK-HEP-1; details: Homo sapiens;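 also: cell viability readout used to quantify reduction in proliferation of human SK-HEP-1 cells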
Description: SANGER: Inhibition of human SK-HEP-1 cell growth in a cell viability assay.

OAW-42 = assay type: functional, cell-based; details: Homo sapiens;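 also: growth inhibition of OAW-42 cells, read out with a cell viability assay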
Description: SANGER: Inhibition of human OAW-42 cell growth in a cell viability assay.

LB373-MEL-D = assay type: functional, cell-based, Homo sapiens; details: Homo sapiens, LB373-MEL-D;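 also: growth inhibition of the cell line, read out in a cell viability assay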
Description: SANGER: Inhibition of human LB373-MEL-D cell growth in a cell viability assay.

Kasumi 1 = assay type: functional, cell-based, Homo sapiens; details: Homo sapiens, Kasumi 1;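 also: growth inhibition of human Kasumi-1 cells, read out by a cell viability assay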
Description: SANGER: Inhibition of human KASUMI-1 cell growth in a cell viability assay.

AGS = assay type: functional, cell-based; details: Homo sapiens;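 also: growth inhibition of AGS cells, determined with a cell viability assay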
Description: SANGER: Inhibition of human AGS cell growth in a cell viability assay.

A-431 = assay type: functional, cell-based; details: Homo sapiens;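 also: growth inhibition of A-431 cells, determined with a cell viability read-out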
Description: SANGER: Inhibition of human A431 cell growth in a cell viability assay.

HuO-3N1 = assay type: functional, cell-based; details: Homo sapiens;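 also: cell viability readout used to measure how strongly compounds suppress proliferation of human HuO-3N1 cells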
Description: SANGER: Inhibition of human HuO-3N1 cell growth in a cell viability assay.

BPH-1 = assay type: functional, cell-based; details: Homo sapiens;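 also: cell viability assay measuring growth inhibition of human BPH-1 cells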
Description: SANGER: Inhibition of human BPH-1 cell growth in a cell viability assay.

CAL-85-1 = assay type: functional, cell-based; details: Homo sapiens;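 also: growth inhibition of human CAL-85-1 cells, read out with a cell viability assay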
Description: SANGER: Inhibition of human CAL-85-1 cell growth in a cell viability assay.

HC-1 = assay type: functional, cell-based, Homo sapiens; details: Homo sapiens, HC-1;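 also: growth inhibition of HC-1 cells measured by a cell viability assay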
Description: SANGER: Inhibition of human HC-1 cell growth in a cell viability assay.

A204 = assay type: functional, cell-based; details: Homo sapiens;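 also: growth inhibition of human A204 cells, read out with a cell viability assay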
Description: SANGER: Inhibition of human A204 cell growth in a cell viability assay.

SN12C = assay type: functional, cell-based; details: Homo sapiens;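 also: growth inhibition of human SN12C cells, measured by a cell viability assay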
Description: SANGER: Inhibition of human SN12C cell growth in a cell viability assay.

HT-1080 = assay type: functional, cell-based; details: Homo sapiens
Description: SANGER: Inhibition of human HT-1080 cell growth in a cell viability assay.

SW1573 = assay type: functional, cell-based; details: Homo sapiens;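 also: growth inhibition of SW1573 cells, read out with a cell viability assay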
Description: SANGER: Inhibition of human SW1573 cell growth in a cell viability assay.

769-P = assay type: functional, cell-based; details: Homo sapiens
Description: SANGER: Inhibition of human 769-P cell growth in a cell viability assay.

Hs-578T = assay type: functional, cell-based; details: Homo sapiens
Description: SANGER: Inhibition of human Hs-578-T cell growth in a cell viability assay.

LN-405 = assay type: functional, cell-based; details: Homo sapiens
Description: SANGER: Inhibition of human LN-405 cell growth in a cell viability assay.

With CN(NC(=O)CC(=O)NN(C)C(=S)c1ccccc1)C(=S)c1ccccc1 [ELESCLOMOL] the IC50 (EFO-27) was 7.72 nM, the IC50 (SW1463) was over 200 nM and the IC50 (H4) was 7.25 nM. It also gave an IC50 (S-117) of 27.4 nM, an IC50 (C-33-A) of 7.58 nM and an IC50 (NCI-H2052) of 63.3 nM. It also gave an IC50 (NCI-H1693) of 9.09 nM, an IC50 (NCI-H1573) of 189 nM and an IC50 (NCI-H1993) of over 200 nM. The IC50 (CWR22R) was 11.3 nM, the IC50 (ASPC1) was 37.7 nM and the IC50 (HCT-116) was 40 nM. For the same compound, the IC50 (HMV-2 cell line) was over 200 nM, the IC50 (WM-115) was 34 nM and the IC50 (SW1783) was 139 nM. The IC50 (MDA-MB-361) was 25.9 nM, the IC50 (NCI-H1651) was 82.9 nM and the IC50 (8505C) was 10.5 nM. For the same compound, the IC50 (PA-1) was 8.84 nM, the IC50 (T-24) was 1.55 nM and the IC50 (HCC1937) was 35.2 nM. The IC50 (MKN-1) was 26 nM, the IC50 (NCI-H1792) was over 200 nM and the IC50 (EFO-21) was 149 nM. The IC50 (HT1197) was 21.8 nM, the IC50 (BEN) was 116 nM and the IC50 (YKG-1) was 12.6 nM. It also gave an IC50 (SK-HEP1) of over 200 nM, an IC50 (OAW-42) of 81.6 nM and an IC50 (LB373-MEL-D) of 14.7 nM. The IC50 (Kasumi 1) was over 200 nM, the IC50 (AGS) was 2.86 nM and the IC50 (A-431) was 126 nM. For the same compound, the IC50 (HuO-3N1) was 24 nM, the IC50 (BPH-1) was 83.1 nM and the IC50 (CAL-85-1) was 72.7 nM. The IC50 (HC-1) was over 200 nM, the IC50 (A204) was 8.85 nM and the IC50 (SN12C) was 28.4 nM. For the same compound, the IC50 (HT-1080) was 4.99 nM, the IC50 (SW1573) was 10.7 nM and the IC50 (769-P) was 9.82 nM. For the same compound, the IC50 (Hs-578T) was 15.5 nM and the IC50 (LN-405) was 87.8 nM.
Compound NC(=O)c1ccc(N(C(N)=O)c2c(F)cccc2F)nc1-c1ccc(F)cc1F [VX-702] has an IC50 (EFO-27) of over 2000 nM, an IC50 (SW1463) of over 2000 nM and an IC50 (H4) of over 2000 nM. The IC50 (S-117) was over 2000 nM, the IC50 (C-33-A) was over 2000 nM and the IC50 (NCI-H2052) was over 2000 nM. For the same compound, the IC50 (NCI-H1693) was over 2000 nM, the IC50 (NCI-H1573) was over 2000 nM and the IC50 (NCI-H1993) was over 2000 nM. For the same compound, the IC50 (CWR22R) was over 2000 nM, the IC50 (ASPC1) was over 2000 nM and the IC50 (HCT-116) was over 2000 nM. For the same compound, the IC50 (HMV-2 cell line) was 1770 nM, the IC50 (WM-115) was over 2000 nM and the IC50 (SW1783) was over 2000 nM. It also gave an IC50 (MDA-MB-361) of over 2000 nM, an IC50 (NCI-H1651) of over 2000 nM and an IC50 (8505C) of over 2000 nM. The IC50 (PA-1) was over 2000 nM, the IC50 (T-24) was over 2000 nM and the IC50 (HCC1937) was over 2000 nM. The IC50 (MKN-1) was over 2000 nM, the IC50 (NCI-H1792) was over 2000 nM and the IC50 (EFO-21) was over 2000 nM. For the same compound, the IC50 (HT1197) was over 2000 nM, the IC50 (BEN) was over 2000 nM and the IC50 (YKG-1) was over 2000 nM. For the same compound, the IC50 (SK-HEP1) was over 2000 nM, the IC50 (OAW-42) was over 2000 nM and the IC50 (LB373-MEL-D) was over 2000 nM. For the same compound, the IC50 (AGS) was 153 nM, the IC50 (A-431) was over 2000 nM and the IC50 (HuO-3N1) was over 2000 nM. It also gave an IC50 (BPH-1) of over 2000 nM, an IC50 (CAL-85-1) of over 2000 nM and an IC50 (HC-1) of over 2000 nM. It also gave an IC50 (A204) of over 2000 nM, an IC50 (SN12C) of over 2000 nM and an IC50 (HT-1080) of over 2000 nM. It also gave an IC50 (SW1573) of over 2000 nM, an IC50 (769-P) of over 2000 nM and an IC50 (Hs-578T) of over 2000 nM. For the same compound, the IC50 (LN-405) was over 2000 nM.
NC(=O)Nc1cc(-c2cccc(F)c2)sc1C(=O)N[C@H]1CCCNC1 [AZD-7762] gave an IC50 (EFO-27) of 430 nM, an IC50 (SW1463) of over 2000 nM and an IC50 (H4) of 221 nM. The IC50 (S-117) was 1040 nM, the IC50 (C-33-A) was 862 nM and the IC50 (NCI-H2052) was over 2000 nM. It also gave an IC50 (NCI-H1693) of 1230 nM, an IC50 (NCI-H1573) of 1420 nM and an IC50 (NCI-H1993) of over 2000 nM. It also gave an IC50 (CWR22R) of 1810 nM, an IC50 (ASPC1) of 664 nM and an IC50 (HCT-116) of 1420 nM. The IC50 (HMV-2 cell line) was over 2000 nM, the IC50 (WM-115) was over 2000 nM and the IC50 (SW1783) was 933 nM. It also gave an IC50 (MDA-MB-361) of 299 nM, an IC50 (NCI-H1651) of 1090 nM and an IC50 (8505C) of 350 nM. For the same compound, the IC50 (PA-1) was 750 nM, the IC50 (T-24) was 370 nM and the IC50 (HCC1937) was 706 nM. For the same compound, the IC50 (MKN-1) was 350 nM, the IC50 (NCI-H1792) was 942 nM and the IC50 (EFO-21) was over 2000 nM. For the same compound, the IC50 (HT1197) was over 2000 nM, the IC50 (BEN) was over 2000 nM and the IC50 (YKG-1) was 1580 nM. The IC50 (SK-HEP1) was over 2000 nM, the IC50 (OAW-42) was 937 nM and the IC50 (LB373-MEL-D) was over 2000 nM. It also gave an IC50 (Kasumi 1) of under 7.81 nM, an IC50 (AGS) of 582 nM and an IC50 (A-431) of 925 nM. For the same compound, the IC50 (HuO-3N1) was 941 nM, the IC50 (BPH-1) was over 2000 nM and the IC50 (CAL-85-1) was over 2000 nM. For the same compound, the IC50 (HC-1) was 521 nM, the IC50 (A204) was 8.56 nM and the IC50 (SN12C) was 1120 nM. The IC50 (HT-1080) was 493 nM, the IC50 (SW1573) was 942 nM and the IC50 (769-P) was 223 nM. For the same compound, the IC50 (Hs-578T) was 453 nM and the IC50 (LN-405) was 877 nM.
